# Source: publication PMC6277767, “Broad and Region-Specific Impacts of the Synthetic Cannabinoid CP 55,940 in Adolescent and Adult Female Mouse Brains” (Frontiers in Molecular Neuroscience, 2018)
# Test system: CD1 female mouse brain lipidome
# Assay: Brain-region lipid levels (HPLC/MS/MS lipidomics) 2 h after single i.p. 3 mg/kg CP 55,940 vs vehicle
# Type: in vivo
# Design: N-arachidonoyl phenylalanine level, Mean / N-stearoyl tryptophan level, Mean / N-stearoyl proline level, Mean / N-stearoyl leucine level, Mean / N-stearoyl phenylalanine level, Mean / N-stearoyl serine level, Mean / N-stearoyl methionine level, Mean: unit: moles per gram
# Conditions: hypothalamus
# Experimental: The Bloomington Institutional Animal Care and Use Committee of Indiana University reviewed and approved the animal procedures. Female mice from the CD1 strain were utilized to match our study examining THC’s effects on the brain lipidome ([Leishman et al., 2018]). Mice were given a single i.p. injection of either 3 mg/kg CP or 1:1:18 cremophor:ethanol:saline vehicle (please refer to the section “3 mg/kg CP Is Relevant for Synthetic Cannabinoid Abuse and Has Stronger Effects on the Female Mouse Brain Lipidome During Adolescence” for a justification of dose and use of female mice). Three different age groups were given injections: PND 35 and PND 50 adolescents, and adult mice (PND 113). At least eight mice in each age group received CP and at least eight received vehicle. Matching the THC study time course ([Leishman et al., 2018]), mice were sacrificed via rapid decapitation 2 h after injection. Brains were immediately removed and flash-frozen in liquid nitrogen, and then stored at -80°C until dissections were performed. Brains were dissected on an ice-cold dissection plate into the following regions: STR, HIPP, CER, THAL, CTX, HYP, MID, and STEM. These abbreviations for these brain areas will be used exclusively when discussing the results generated by these specific dissections. Each dissected area was immediately placed in liquid nitrogen and then stored at -80°C until used for lipid extraction.
# Tissue extracts were performed as previously described ([Bradshaw et al., 2006]; [Stuart et al., 2013]; [Raboune et al., 2014]; [Leishman et al., 2016a],[b], [2017], [2018]). First, samples were shock frozen in liquid nitrogen, weighed, and transferred to a centrifuge tube. The mass of the largest sample was multiplied by 50 to determine how many milliliters of HPLC-grade methanol (Fisher, Fair Lawn, NJ, United States) to add. Then, samples were spiked with 500 pmol deuterium-labeled NAGly (d8NAGly; Cayman Chemical, Ann Arbor, MI, United States). Samples were placed on ice in darkness for 2 h then individually homogenized and centrifuged at 19,000 × g for 20 min at 20°C. Supernatants were diluted with HPLC water (purified in house) to make a solution of 75% water, 25% supernatant. Lipids were partially purified on C18 solid phase extraction columns (Agilent, Palo Alto, CA, United States). A series of four elutions with 1.5 mL of 60%, 75%, 85%, and 100% methanol were collected ([Stuart et al., 2013]; [Leishman et al., 2016a],[b], [2018]).
# As previously described ([Bradshaw et al., 2006]; [Tan et al., 2006]; [Smoum et al., 2010]; [Stuart et al., 2013]; [Tortoriello et al., 2013]; [Raboune et al., 2014]; [Leishman et al., 2016a],[b], [2017], [2018]), samples were analyzed using an Applied Biosystems API 3000 triple quadrupole mass spectrometer with electrospray ionization (Foster City, CA, United States). Using an Agilent XDB-C18 reversed phase analytical column and optimized mobile phase gradients, 20 μL from each elution were chromatographed. Two Shimadzu 10ADvp pumps (Columbia, MD, United States) provided the pressure for gradient elution. Mobile phase A: 20% methanol, 80% water (v/v) and 1 mM ammonium acetate (Sigma, St. Louis, MO, United States). Mobile phase B: 100% methanol, 1 mM ammonium acetate. Every method run began with 0% mobile phase B, reached 100% mobile phase B flowing at 0.2 mL/min, and gradually returned to 0% mobile phase B.
# This screening library will be referred to as the lipidome when discussing data from this study. HPLC/MS/MS data were analyzed using Analyst software (Applied Biosystems) ([Bradshaw et al., 2006]; [Tan et al., 2006]; [Stuart et al., 2013]; [Tortoriello et al., 2013]; [Raboune et al., 2014]; [Leishman et al., 2016a],[b], [2017], [2018]). Chromatograms (Supplementary Figure 3) were generated by determining the retention time of analytes from the analytical column with a [M-1] or [M+1] parent peak and a fragmentation peak corresponding to the programmed values. […]
# [1] = PND 50 female mice, 3mg/kg CP 55,940
# [2] = PND 35 adolescent female mice, 3 mg/kg
smiles,measurement,setting,value
"CCCCCCC(C)(C)c1ccc([C@@H]2C[C@H](O)CC[C@H]2CCCO)c(O)c1 [CP 55,940]","N-docosahexaenoyl methionine level, Mean",[1],BDL
same,"N-docosahexaenoyl phenylalanine level, Mean",[1],PISSR
same,"N-docosahexaenoyl proline level, Mean",[1],BDL
same,"N-docosahexaenoyl serine level, Mean",[1],PISSR
same,"N-docosahexaenoyl tryptophan level, Mean",[1],BDL
same,"N-docosahexaenoyl tyrosine level, Mean",[1],BDL
same,"N-docosahexaenoyl valine level, Mean",[1],BDL
same,"N-linoleoyl GABA level, Mean",[1],PISSR
same,"N-linoleoyl alanine level, Mean",[1],3.81E-13
same,"N-linoleoyl ethanolamine level, Mean",[1],3.47E-11
same,"N-linoleoyl glycine level, Mean",[1],1.12E-13
same,"N-linoleoyl leucine level, Mean",[1],PISSR
same,"N-linoleoyl methionine level, Mean",[1],BDL
same,"N-linoleoyl phenylalanine level, Mean",[1],PISSR
same,"N-linoleoyl proline level, Mean",[1],BDL
same,"N-linoleoyl serine level, Mean",[1],1.7E-10
same,"N-linoleoyl tryptophan level, Mean",[1],BDL
same,"N-linoleoyl tyrosine level, Mean",[1],BDL
same,"N-linoleoyl valine level, Mean",[1],BDL
same,"N-nervonoyl valine level, Mean",[1],BDL
same,"N-oleoyl GABA level, Mean",[1],1.97E-12
same,"N-oleoyl alanine level, Mean",[1],2.61E-12
same,"N-oleoyl dopamine level, Mean",[1],BDL
same,"N-oleoyl ethanolamine level, Mean",[1],8.36E-11
same,"N-oleoyl glycine level, Mean",[1],5.38E-13
same,"N-oleoyl leucine level, Mean",[1],3.54E-13
same,"N-oleoyl methionine level, Mean",[1],PISSR
same,"N-oleoyl phenylalanine level, Mean",[1],6.88E-13
same,"N-oleoyl proline level, Mean",[1],BDL
same,"N-oleoyl serine level, Mean",[1],3.07E-10
same,"N-oleoyl tryptophan level, Mean",[1],BDL
same,"N-oleoyl tyrosine level, Mean",[1],1.89E-13
same,"N-oleoyl valine level, Mean",[1],PISSR
same,"N-palmitoyl GABA level, Mean",[1],6.6E-12
same,"N-palmitoyl alanine level, Mean",[1],6.9E-12
same,"N-palmitoyl ethanolamine level, Mean",[1],6.24E-11
same,"N-palmitoyl glycine level, Mean",[1],3.58E-12
same,"N-palmitoyl leucine level, Mean",[1],1.26E-12
same,"N-palmitoyl methionine level, Mean",[1],9.4E-13
same,"N-palmitoyl phenylalanine level, Mean",[1],1.3E-12
same,"N-palmitoyl proline level, Mean",[1],BDL
same,"N-palmitoyl serine level, Mean",[1],3.09E-11
same,"N-palmitoyl tryptophan level, Mean",[1],BDL
same,"N-palmitoyl tyrosine level, Mean",[1],4.12E-13
same,"N-palmitoyl valine level, Mean",[1],2.32E-13
same,"N-stearoyl GABA level, Mean",[1],7.69E-12
same,"N-stearoyl alanine level, Mean",[1],9.94E-13
same,"N-stearoyl ethanolamine level, Mean",[1],3.67E-11
same,"N-stearoyl glycine level, Mean",[1],5.58E-13
same,"N-stearoyl leucine level, Mean",[1],9.96E-13
same,"N-stearoyl methionine level, Mean",[1],5.57E-13
same,"N-stearoyl phenylalanine level, Mean",[1],1.28E-12
same,"N-stearoyl proline level, Mean",[1],BDL
same,"N-stearoyl serine level, Mean",[1],5.5E-11
same,"N-stearoyl tryptophan level, Mean",[1],BDL
same,"N-stearoyl tyrosine level, Mean",[1],1.01E-13
same,"Oleic acid level, Mean",[1],2.82E-10
same,"PGE2 level, Mean",[1],7.14E-11
same,"PhosphoLEA level, Mean",[1],1.12E-11
same,"THC level, Mean",[1],BDL
same,"2-arachidonoyl glycerol level, Mean",[2],6.64E-10
same,"2-linoleoyl glycerol level, Mean",[2],5.43E-11
same,"2-oleoyl glycerol level, Mean",[2],7.45E-10
same,"2-palmitoyl glycerol level, Mean",[2],7.93E-10
same,"6-ketoPGF1α level, Mean",[2],1.71E-11
same,"Arachidonic acid level, Mean",[2],3.33E-09
same,"Linoleic acid level, Mean",[2],2.5E-10
same,"N- stearoyl valine level, Mean",[2],1.41E-12
same,"N-arachidonoyl GABA level, Mean",[2],3.93E-11
same,"N-arachidonoyl alanine level, Mean",[2],5.15E-12
same,"N-arachidonoyl ethanolamine level, Mean",[2],5.6E-12
same,"N-arachidonoyl glycine level, Mean",[2],5.39E-12
same,"N-arachidonoyl phenylalanine level, Mean",[2],7.34E-13
same,"N-arachidonoyl taurine level, Mean",[2],1.56E-11
same,"N-docosahexaenoyl GABA level, Mean",[2],5.25E-12
same,"N-docosahexaenoyl ethanolamine level, Mean",[2],1.68E-11
same,"N-docosahexaenoyl glycine level, Mean",[2],4.59E-13
same,"N-linoleoyl alanine level, Mean",[2],4.26E-12
same,"N-linoleoyl ethanolamine level, Mean",[2],1.7E-11
same,"N-linoleoyl glycine level, Mean",[2],3.45E-13
same,"N-linoleoyl serine level, Mean",[2],6.26E-11
same,"N-oleoyl GABA level, Mean",[2],2.02E-11
same,"N-oleoyl alanine level, Mean",[2],1.14E-11
same,"N-oleoyl ethanolamine level, Mean",[2],1.79E-10
same,"N-oleoyl glycine level, Mean",[2],3.5E-12
same,"N-oleoyl leucine level, Mean",[2],3.49E-13
same,"N-oleoyl phenylalanine level, Mean",[2],1.8E-12
same,"N-oleoyl serine level, Mean",[2],2.72E-10
same,"N-oleoyl valine level, Mean",[2],3.31E-13
same,"N-palmitoyl GABA level, Mean",[2],3.44E-11
same,"N-palmitoyl alanine level, Mean",[2],3.03E-11
same,"N-palmitoyl ethanolamine level, Mean",[2],4.49E-11
same,"N-palmitoyl glycine level, Mean",[2],1.16E-11
same,"N-palmitoyl leucine level, Mean",[2],2.12E-12
same,"N-palmitoyl methionine level, Mean",[2],5.5E-12
same,"N-palmitoyl phenylalanine level, Mean",[2],4.4E-12
same,"N-palmitoyl serine level, Mean",[2],1.07E-11
same,"N-palmitoyl tyrosine level, Mean",[2],1.52E-12
same,"N-palmitoyl valine level, Mean",[2],1.65E-12
same,"N-stearoyl GABA level, Mean",[2],3.84E-11
same,"N-stearoyl alanine level, Mean",[2],1.89E-11
same,"N-stearoyl ethanolamine level, Mean",[2],3.64E-11
same,"N-stearoyl glycine level, Mean",[2],8.37E-12
